Calls of active or inactive are those of the source. Unless noted, the calls are words filed in the database; no cut-off is given here.
What was measured:
Format in all cases: functional
[1] = target: Kappa-type opioid receptor (Homo sapiens, UniProt P41145); assay: SAR analysis of small molecule agonists of the kappa opioid receptor via a luminescent beta-arrestin assay - Set 3. [Related pubchem assays (depositor defined):AID1777, AID1785, AID1786, AID1966, AID2133, AID2136, AID2284, AID2500]
[2] = target: Intestinal-type alkaline phosphatase (Homo sapiens, UniProt P09923); assay: inhibition of human intestinal alkaline phosphatase – biochemical, dose response (AID 488876)
[3] = target: T1, Alkaline phosphatase, tissue-nonspecific isozyme (Homo sapiens, UniProt P05186); assay: TNAP enzyme inhibition by screening hits, dose response, selectivity assay for mouse IAP inhibitor project, biochemical, human TNAP, uHTS hits (AID 488906)
T1 sequence (P05186 whole entry): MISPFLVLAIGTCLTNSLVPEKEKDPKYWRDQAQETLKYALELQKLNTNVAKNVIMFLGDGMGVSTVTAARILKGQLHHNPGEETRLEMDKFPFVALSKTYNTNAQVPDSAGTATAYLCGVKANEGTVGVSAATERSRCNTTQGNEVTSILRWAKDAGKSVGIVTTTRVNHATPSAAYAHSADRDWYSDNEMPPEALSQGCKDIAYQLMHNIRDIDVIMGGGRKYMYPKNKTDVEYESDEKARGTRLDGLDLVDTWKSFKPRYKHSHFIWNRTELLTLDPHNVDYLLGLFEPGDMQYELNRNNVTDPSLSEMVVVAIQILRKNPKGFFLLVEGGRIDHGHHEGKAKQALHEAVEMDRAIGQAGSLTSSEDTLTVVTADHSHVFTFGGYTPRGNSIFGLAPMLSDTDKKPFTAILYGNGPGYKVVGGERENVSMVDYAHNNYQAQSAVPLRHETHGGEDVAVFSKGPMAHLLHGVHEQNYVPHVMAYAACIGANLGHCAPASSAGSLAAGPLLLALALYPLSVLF

[4] = target: Intestinal-type alkaline phosphatase (Mus musculus, UniProt P24822); assay: PubChem AID 488785
[5] = target: Sphingosine 1-phosphate receptor 1 (Homo sapiens, UniProt P21453); assay: Fluorescence-based counterscreen assay for S1P4 agonists: Cell-based dose response high throughput screening assay to identify agonists of the Sphingosine 1-Phosphate Receptor 1 (S1P1). [Related pubchem assays (depositor defined):AID1509, AID1523, AID1801, AID463107, AID463118, AID463119, AID463122, AID463123, AID463129, AID463225, AID504400, AID504460]
[6] = target: T2, Sphingosine 1-phosphate receptor 4 (Homo sapiens, UniProt O95977); assay: Fluorescence dose response cell-based high throughput screening assay for agonists of the Sphingosine 1-Phosphate Receptor 4 (S1P4). [Related pubchem assays: 1509 (Primary screen.), 1523 (Confirmation screen in triplicates.)]
T2 sequence (O95977 whole entry): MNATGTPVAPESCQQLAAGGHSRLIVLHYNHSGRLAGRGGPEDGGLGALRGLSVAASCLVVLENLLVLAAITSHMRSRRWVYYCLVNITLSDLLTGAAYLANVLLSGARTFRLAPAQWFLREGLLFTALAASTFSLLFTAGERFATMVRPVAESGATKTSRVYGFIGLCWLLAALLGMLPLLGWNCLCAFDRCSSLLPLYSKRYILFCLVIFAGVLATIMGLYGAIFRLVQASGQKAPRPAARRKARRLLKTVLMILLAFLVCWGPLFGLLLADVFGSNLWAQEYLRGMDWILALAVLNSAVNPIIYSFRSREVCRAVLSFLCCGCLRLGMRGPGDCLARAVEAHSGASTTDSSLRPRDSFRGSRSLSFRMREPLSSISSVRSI

[7] = target: Metabotropic glutamate receptor 5 (Rattus norvegicus, UniProt P31424); assay: Modulation of the Metabotropic Glutamate Receptor mGluR4: Selectivity at mGluR5. [Related pubchem assays (depositor defined):AID2437, AID2807]
[8] = target: Metabotropic glutamate receptor 6 (Homo sapiens, UniProt O15303); assay: Modulation of the Metabotropic Glutamate Receptor mGluR4: Selectivity at mGluR6. [Related pubchem assays (depositor defined):AID2437, AID2807]
[9] = target: T3, Metabotropic glutamate receptor 4 (Rattus norvegicus, UniProt P31423); assay: Modulation of the Metabotropic Glutamate Receptor mGluR4: Selectivity at mGluR4. [Related pubchem assays (depositor defined):AID2437, AID2807]
[10] = target: Metabotropic glutamate receptor 7 (Rattus norvegicus, UniProt P35400); assay: Modulation of the Metabotropic Glutamate Receptor mGluR4: Selectivity at mGluR7. [Related pubchem assays (depositor defined):AID2437, AID2807]
[11] = target: Metabotropic glutamate receptor 8 (Rattus norvegicus, UniProt P70579); assay: Modulation of the Metabotropic Glutamate Receptor mGluR4: Selectivity at mGluR8. [Related pubchem assays (depositor defined):AID2437, AID2807]
[12] = target: Metabotropic glutamate receptor 2 (Rattus norvegicus, UniProt P31421); assay: mGluR2 modulation, off-target check – cell-based, rat, selectivity assay for mGluR4 modulator project (AID 2188)
[13] = target: Metabotropic glutamate receptor 1 (Rattus norvegicus, UniProt P23385); assay: Modulation of the Metabotropic Glutamate Receptor mGluR4: Selectivity at mGluR1. [Related pubchem assays (depositor defined):AID2437, AID2807]
[14] = target: T3, Metabotropic glutamate receptor 4; assay: Modulation of the Metabotropic Glutamate Receptor mGluR4: Rat PAM Potency. [Related pubchem assays (depositor defined):AID2437, AID2807]
[15] = target: Metabotropic glutamate receptor 3 (Rattus norvegicus, UniProt P31422); assay: Modulation of the Metabotropic Glutamate Receptor mGluR4: Selectivity at mGluR3. [Related pubchem assays (depositor defined):AID2437, AID2807]

T3 sequence (P31423 whole entry): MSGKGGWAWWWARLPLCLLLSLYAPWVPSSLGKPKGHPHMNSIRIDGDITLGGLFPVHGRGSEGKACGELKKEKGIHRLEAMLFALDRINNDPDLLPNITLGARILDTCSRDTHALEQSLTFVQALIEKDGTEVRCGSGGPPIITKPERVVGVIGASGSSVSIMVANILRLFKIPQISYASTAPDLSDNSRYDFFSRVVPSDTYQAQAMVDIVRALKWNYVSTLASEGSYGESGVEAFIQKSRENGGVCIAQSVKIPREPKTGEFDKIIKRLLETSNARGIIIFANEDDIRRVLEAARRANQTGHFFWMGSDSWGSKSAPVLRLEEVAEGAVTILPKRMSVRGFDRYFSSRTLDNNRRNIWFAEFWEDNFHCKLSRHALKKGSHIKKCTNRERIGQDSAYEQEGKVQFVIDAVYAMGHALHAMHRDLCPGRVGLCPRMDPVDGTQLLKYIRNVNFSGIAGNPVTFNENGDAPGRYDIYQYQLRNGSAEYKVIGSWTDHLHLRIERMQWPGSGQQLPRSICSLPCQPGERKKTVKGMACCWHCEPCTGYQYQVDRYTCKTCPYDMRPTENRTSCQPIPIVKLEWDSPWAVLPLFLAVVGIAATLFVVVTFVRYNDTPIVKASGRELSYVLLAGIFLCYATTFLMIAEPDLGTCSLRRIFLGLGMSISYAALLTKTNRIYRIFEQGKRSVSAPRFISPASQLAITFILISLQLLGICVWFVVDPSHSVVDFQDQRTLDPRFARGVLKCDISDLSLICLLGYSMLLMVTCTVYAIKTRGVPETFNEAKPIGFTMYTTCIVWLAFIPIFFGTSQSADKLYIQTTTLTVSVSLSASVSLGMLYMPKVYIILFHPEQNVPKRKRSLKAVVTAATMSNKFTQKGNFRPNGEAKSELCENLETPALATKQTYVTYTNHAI
Chain of Sphingosine 1-phosphate receptor 1 (P21453 whole entry): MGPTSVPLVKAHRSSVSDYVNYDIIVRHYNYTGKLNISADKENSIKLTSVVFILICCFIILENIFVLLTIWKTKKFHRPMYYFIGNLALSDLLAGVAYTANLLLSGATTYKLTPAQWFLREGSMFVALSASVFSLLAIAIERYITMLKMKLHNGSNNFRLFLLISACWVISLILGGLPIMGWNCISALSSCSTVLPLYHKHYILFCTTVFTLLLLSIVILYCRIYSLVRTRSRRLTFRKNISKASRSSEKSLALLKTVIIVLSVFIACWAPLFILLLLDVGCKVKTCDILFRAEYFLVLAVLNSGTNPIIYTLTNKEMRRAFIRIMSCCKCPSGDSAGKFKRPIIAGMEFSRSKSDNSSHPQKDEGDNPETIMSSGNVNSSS
Chain of Metabotropic glutamate receptor 7 (P35400 whole entry): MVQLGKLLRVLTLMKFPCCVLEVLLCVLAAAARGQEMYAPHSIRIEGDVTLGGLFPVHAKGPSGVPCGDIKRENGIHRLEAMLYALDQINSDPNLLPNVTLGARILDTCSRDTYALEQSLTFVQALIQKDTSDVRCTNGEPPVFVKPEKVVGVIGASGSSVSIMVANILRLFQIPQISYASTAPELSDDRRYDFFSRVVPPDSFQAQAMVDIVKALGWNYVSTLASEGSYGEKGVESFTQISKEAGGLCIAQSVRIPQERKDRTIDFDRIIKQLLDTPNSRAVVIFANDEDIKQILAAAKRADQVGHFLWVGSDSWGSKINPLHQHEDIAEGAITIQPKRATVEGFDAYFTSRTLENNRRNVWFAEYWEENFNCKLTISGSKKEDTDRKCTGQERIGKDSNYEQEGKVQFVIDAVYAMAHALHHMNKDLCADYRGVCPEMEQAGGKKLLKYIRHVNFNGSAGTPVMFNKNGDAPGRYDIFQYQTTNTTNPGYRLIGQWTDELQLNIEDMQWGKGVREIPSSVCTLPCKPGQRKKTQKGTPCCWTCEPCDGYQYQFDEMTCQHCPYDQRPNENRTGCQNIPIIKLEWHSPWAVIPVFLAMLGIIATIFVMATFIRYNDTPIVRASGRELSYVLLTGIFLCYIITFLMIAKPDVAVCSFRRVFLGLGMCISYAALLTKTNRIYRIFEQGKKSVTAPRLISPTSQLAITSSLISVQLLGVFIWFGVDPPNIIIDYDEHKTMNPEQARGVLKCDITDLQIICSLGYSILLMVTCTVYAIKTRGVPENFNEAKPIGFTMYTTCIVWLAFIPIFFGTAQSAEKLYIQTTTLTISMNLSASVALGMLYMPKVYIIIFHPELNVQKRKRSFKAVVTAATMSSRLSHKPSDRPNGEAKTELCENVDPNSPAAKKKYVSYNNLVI
Chain of Metabotropic glutamate receptor 2 (P31421 whole entry): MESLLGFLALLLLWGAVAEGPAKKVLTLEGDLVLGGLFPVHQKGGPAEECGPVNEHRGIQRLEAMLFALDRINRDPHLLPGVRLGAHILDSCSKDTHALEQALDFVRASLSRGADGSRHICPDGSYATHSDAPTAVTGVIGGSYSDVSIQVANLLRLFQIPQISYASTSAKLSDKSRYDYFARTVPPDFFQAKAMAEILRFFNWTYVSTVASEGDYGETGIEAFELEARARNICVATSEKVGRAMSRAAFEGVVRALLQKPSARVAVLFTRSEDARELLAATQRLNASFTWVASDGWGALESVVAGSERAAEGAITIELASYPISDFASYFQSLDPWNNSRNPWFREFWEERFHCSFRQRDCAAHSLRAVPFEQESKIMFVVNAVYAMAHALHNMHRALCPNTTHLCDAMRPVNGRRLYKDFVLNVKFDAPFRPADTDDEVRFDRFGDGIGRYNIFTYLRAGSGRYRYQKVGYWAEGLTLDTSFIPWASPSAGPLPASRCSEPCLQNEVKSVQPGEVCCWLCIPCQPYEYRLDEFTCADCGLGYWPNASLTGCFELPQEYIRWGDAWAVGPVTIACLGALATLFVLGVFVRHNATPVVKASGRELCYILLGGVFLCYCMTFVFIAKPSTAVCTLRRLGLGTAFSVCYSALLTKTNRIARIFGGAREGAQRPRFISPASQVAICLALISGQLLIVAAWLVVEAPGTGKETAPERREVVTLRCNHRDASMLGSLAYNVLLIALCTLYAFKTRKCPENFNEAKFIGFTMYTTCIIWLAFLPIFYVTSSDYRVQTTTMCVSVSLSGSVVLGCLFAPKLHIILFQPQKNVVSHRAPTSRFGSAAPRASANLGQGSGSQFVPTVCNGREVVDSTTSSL
Chain of Metabotropic glutamate receptor 8 (P70579 whole entry): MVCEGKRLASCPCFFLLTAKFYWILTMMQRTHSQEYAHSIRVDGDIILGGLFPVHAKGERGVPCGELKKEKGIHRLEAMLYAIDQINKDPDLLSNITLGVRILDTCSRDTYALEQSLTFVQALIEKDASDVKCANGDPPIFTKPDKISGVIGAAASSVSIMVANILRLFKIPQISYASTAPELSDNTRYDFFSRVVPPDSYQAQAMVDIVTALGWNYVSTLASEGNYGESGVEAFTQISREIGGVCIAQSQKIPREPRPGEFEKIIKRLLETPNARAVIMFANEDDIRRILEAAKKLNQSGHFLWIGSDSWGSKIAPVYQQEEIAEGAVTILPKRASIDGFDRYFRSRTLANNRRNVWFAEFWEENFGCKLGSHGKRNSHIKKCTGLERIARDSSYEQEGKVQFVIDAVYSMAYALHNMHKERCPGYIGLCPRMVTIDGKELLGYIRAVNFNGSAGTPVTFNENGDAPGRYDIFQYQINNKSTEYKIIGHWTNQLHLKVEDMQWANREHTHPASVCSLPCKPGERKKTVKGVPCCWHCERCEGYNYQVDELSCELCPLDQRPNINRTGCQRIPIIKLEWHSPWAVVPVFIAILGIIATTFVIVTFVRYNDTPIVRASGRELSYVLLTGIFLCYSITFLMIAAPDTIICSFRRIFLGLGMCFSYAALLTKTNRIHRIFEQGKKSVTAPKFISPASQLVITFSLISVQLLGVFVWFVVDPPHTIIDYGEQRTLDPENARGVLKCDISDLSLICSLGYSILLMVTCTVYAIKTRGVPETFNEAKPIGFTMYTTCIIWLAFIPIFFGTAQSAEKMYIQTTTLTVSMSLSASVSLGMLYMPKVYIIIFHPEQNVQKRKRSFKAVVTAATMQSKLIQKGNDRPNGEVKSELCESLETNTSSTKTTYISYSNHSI
Chain of Metabotropic glutamate receptor 6 (O15303 whole entry): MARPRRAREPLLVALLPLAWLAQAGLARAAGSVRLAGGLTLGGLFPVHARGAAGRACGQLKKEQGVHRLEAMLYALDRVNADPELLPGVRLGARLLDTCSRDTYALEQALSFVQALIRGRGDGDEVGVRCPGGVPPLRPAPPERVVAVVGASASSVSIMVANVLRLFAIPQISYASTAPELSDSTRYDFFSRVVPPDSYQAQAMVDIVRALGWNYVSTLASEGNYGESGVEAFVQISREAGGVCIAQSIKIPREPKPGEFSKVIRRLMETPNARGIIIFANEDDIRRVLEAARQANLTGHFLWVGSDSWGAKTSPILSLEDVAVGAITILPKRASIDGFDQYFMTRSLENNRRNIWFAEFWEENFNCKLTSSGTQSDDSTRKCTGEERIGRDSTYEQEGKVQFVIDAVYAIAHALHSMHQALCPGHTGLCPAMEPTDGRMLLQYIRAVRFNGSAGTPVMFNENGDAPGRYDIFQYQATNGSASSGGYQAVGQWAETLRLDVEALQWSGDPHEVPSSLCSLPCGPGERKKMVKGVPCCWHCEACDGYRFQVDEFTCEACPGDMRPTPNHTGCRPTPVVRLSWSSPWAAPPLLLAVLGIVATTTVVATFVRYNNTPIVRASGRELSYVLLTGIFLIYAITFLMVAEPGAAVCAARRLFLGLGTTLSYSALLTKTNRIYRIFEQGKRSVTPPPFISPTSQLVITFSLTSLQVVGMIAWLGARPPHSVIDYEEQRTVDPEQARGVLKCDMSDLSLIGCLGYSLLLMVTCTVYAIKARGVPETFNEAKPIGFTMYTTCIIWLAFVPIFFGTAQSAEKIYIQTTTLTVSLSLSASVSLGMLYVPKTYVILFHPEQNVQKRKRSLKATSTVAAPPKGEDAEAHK

With `Cc1ccc2[nH]c(=O)c(CN(CCC(C)C)C(=O)c3ccccn3)cc2c1` the EC50 [1] was 13.1 µM (inactive).

For `NS(=O)(=O)c1cccc(NC(=O)CSc2nnc(-c3ccncc3)n2C2CC2)c1`, the IC50 [2] was 9.42 µM (active), the IC50 [3] was 17.1 µM (active) and the IC50 [4] was 2.34 µM (active).

`Cc1cc(C)nc(N/N=C/c2ccc(N3CCOCC3)cc2)n1` was tested, and the EC50 [5] was > 49.8 µM (inactive) and the EC50 [6] was > 49.8 µM (not active).

With `O=C(Nc1cccc(Cl)c1)c1ccccn1` the EC50 [7] was 1.24 µM (inactive), the EC50 [8] was 1.25 µM (active) and the EC50 [9] was 597 nM (active). For the same compound, the “Activity EC50” value [10] was 163 µM, the EC50 [11] was 9.14 µM (inactive) and the EC50 [12] was 1.47 µM (inactive). For the same compound, the EC50 [13] was 1.17 µM (inactive), the EC50 [14] was 295 nM (active) and the EC50 [15] was 811 nM (inactive).
